These results are taken from patent publication US5922573A, “IL-1 receptor antagonists with enhanced inhibitory activity” (Dompe' S.p.A., priority 1994, dated 1999).

One assay has as its system murine thymocytes. Kind of assay: Inhibition of IL-1β-induced proliferation of murine thymocytes. Type of assay: cell-based, mouse. The settings on record: for Thymocyte proliferation to IL-1β 300 pg/ml, ID50: C3H/HeJ thymocytes with PHA, 72 hours; for Thymocyte proliferation to IL-1β 30 pg/ml, ID50: murine thymocytes. As to the method:
1. Proliferation of murine thymocytes: normal thymocytes are obtained by breaking up thymus glands of C3H/HeJ mice (resistant to bacterial endotoxin) aged 4-8 weeks. The thymocytes (5×10^5 cells/well of Cluster^96 plates) are incubated for 72 hours in RPMI-1640 culture medium with addition of antibiotics, L-glutamine, 2-ME, HEPES and 5% foetal calf serum at 37° C. in air with 5% CO2. […] To determine the proliferation of the thymocytes induced by IL-1, at the end of 72 hours of incubation […] of culture medium containing […] of tritiated thymidine are added to each well. After another 18 hours, the cells from each well are harvested onto small glass-fibre disks and the radioactivity incorporated (proportional to the proliferation of the cells) is measured with a β-counter. For determination of the inhibitory capacity of the improved mutants of IL-1ra , the proliferation of the thymocytes is measured in response to the minimum dose of IL-1 that induces optimum proliferation (generally around 0.3 ng/ml) in the absence or in the presence of stepped doses of IL-1ra (control standard) or of the improved mutants. The improved inhibitory activity of the mutants is determined by calculating the shift of the inhibition curve towards the lower doses when compared with the curve of IL-1ra .

Another assay addresses T1, IL-1RI (Mus musculus, UniProt P13504).
T1 construct: Cells which express IL-1RI selectively (e.g. the murine thymoma clone EL4-6.1); endogenous in cells; host or cells: EL4-6.1 (murine thymoma clone)
T1 sequence (P13504 20-576): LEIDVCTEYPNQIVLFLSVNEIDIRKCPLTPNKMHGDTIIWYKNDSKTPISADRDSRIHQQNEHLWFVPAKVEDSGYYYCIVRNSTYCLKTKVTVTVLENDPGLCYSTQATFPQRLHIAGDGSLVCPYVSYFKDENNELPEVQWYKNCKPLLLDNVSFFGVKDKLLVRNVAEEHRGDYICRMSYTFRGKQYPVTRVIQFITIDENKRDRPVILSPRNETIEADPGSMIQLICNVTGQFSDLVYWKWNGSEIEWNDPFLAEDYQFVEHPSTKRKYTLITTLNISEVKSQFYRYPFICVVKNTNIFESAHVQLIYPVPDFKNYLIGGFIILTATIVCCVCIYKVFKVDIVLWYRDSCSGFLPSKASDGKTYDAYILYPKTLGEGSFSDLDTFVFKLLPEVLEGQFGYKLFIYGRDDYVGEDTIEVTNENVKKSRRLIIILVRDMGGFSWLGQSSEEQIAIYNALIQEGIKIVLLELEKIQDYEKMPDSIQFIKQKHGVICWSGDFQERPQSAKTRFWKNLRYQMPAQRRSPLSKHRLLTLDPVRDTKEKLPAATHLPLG
Kind of assay: Binding to IL-1RI: displacement of 125I-IL-1β on cells expressing IL-1RI selectively. To be noted: displacement of 125I IL-1β equilibrium binding on 10^6 cells; murine thymoma clone EL4-6.1. As to the method: (§1) The inhibitory activity of the improved IL-1ra mutants is measured in receptor binding assays, using IL-1ra as the reference standard. Cells which express IL-1RI selectively (e.g. the murine thymoma clone EL4-6.1) and cells which express IL-1RII selectively (e.g. Burkitt's human lymphoma RAJI clone 1H7) are chosen as target cells. The number of receptors per cell and the binding affinity (Kd) in both the lines are calculated from saturation curves obtained by incubating the cells (10^6 cells/test tube in a final volume of 0.1 ml of culture medium with NaN3) with increasing doses of IL-1β labelled with 125I in the presence or absence of a 500-fold molar excess of unlabelled IL-1β (for calculating non-specific binding, generally always less than 5-10%) for the optimum times and at the optimum temperatures for attaining equilibrium (generally 2 hours at room temperature) (Scapigliati et al. FEBS Lett. 243: 394, 1989). To calculate the inhibition activity, tests are conducted by incubating the cells with a concentration of radiolabelled IL-1β corresponding to approximately half of the Kd in the absence or in the presence of stepped doses of IL-1ra (reference standard) or of the improved mutant.
(§2) The improved inhibitory activity of the mutants is determined by calculating the shift of the inhibition curve towards the lower doses when compared with the curve of IL-1ra.
On the technique in general: In a radioligand displacement assay an active substance lowers the binding of a labelled ligand.

For a further assay, the target named is T2, IL-1RII (Homo sapiens, UniProt P27930).
T2 construct: cells which express IL-1RII selectively (e.g. Burkitt's human lymphoma RAJI clone 1H7); endogenous in cells; host or cells: RAJI clone 1H7 (Burkitt's human lymphoma)
T2 sequence (P27930 14-398): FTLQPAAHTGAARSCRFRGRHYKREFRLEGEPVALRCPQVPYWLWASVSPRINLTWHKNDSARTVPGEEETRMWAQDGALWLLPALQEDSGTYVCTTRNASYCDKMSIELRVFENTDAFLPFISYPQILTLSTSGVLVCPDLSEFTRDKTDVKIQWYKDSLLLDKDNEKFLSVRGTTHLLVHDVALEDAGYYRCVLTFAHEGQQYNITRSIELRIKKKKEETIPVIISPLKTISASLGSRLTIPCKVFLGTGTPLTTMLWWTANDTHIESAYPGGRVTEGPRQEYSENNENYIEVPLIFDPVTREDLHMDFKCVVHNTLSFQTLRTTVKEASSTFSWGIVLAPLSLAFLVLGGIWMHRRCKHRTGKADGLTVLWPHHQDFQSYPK
Kind of assay: Binding to IL-1RII: displacement of 125I-IL-1β on cells expressing IL-1RII selectively. The settings on record: displacement of 125I IL-1β equilibrium binding on 10^6 cells. As to the method:
as §1, §2

The subject of another assay is human osteosarcoma MG-63. The experiment in a line: Inhibition of IL-1β-induced IL-6 production in MG-63 cells. The settings on record: MG-63 cells stimulated with IL-1 around 0.3 ng/ml, 48 hours. Type of assay: cell-based. As to the method:
The quantity of IL-6 in the culture supernatants is measured by a commercial ELISA assay or determined in the biological assay of proliferation of 7TD1 cells.

For assay [1], the system named is IL-1β. Kind of assay: Inhibition of IL-1β-induced neutrophilia in vivo. To be noted: neutrophilia induced in the mouse by 150 ng/kg IL-1β; antagonist intraperitoneally at -15 min, 0, +15 min; read four hours after treatment. As to the method:
2. Induction of neutrophilia: C3H/HeJ mice or mice of some other strain (3 mice/test group) receive stepped doses of IL-1β with a single intraperitoneal administration. The increase of circulating neutrophils induced by IL-1 is evaluated by cytofluorimetry four hours after the treatment.

Assay [2] has as its system IL-1β. Kind of assay: Inhibition of IL-1β-induced hypoglycaemia in vivo. The settings on record: hypoglycaemia induced in the mouse by 5.0 μg/kg IL-1β, intraperitoneal, serum glucose after two hours. As to the method:
1. Induction of hypoglycaemia: C3H/HeJ mice or mice of some other strain (3-5 mice/test group) receive stepped doses of IL-1β by intraperitoneal administration. After two hours the animals are killed and the blood is collected for preparation of the serum. The serum glucose content is determined after reaction with glucose oxidase in a commercial calorimetric assay.

Setting [3] is: Burkitt's human lymphoma RAJI clone 1H7.

As to “MILRA-2: IL-1ra mutant T109→A (alanine in position 109 of the mature protein)”, the “Thymocyte proliferation to IL-1β 300 pg/ml, ID50” value with murine thymocytes is 1.75 ng/mL. In the assay with IL-1RI, the “Binding to IL-1RI, ID50” value came to 0.19 nM. The substance also registered a Binding to IL-1RII, ID50 with IL-1RII (RAJI clone 1H7, unit as printed in this cell) of 1.8 nM. Besides, the “IL-6 production, ID50” value in the assay with human osteosarcoma MG-63 is 1.12 ng/mL.
As to “MILRA-1: IL-1ra mutant N91→R (arginine in position 91 of the mature protein)”, the “Thymocyte proliferation to IL-1β 300 pg/ml, ID50” value in the assay with murine thymocytes worked out at 1.78 ng/mL. The “Binding to IL-1RI, ID50” value in the assay with IL-1RI worked out at 0.17 nM. The “Neutrophilia, ID100” value in the assay with IL-1β [1] was less than 0.0225 mg/kg. The “Hypoglycaemia, ID50” value in the assay on IL-1β [2] was 0.128 mg/kg. Besides, the “Binding to IL-1RII, ID50” value in the assay with IL-1RII (setting [3]) is given as 13.20 nM. Moreover, the “IL-6 production, ID50” value in the assay on human osteosarcoma MG-63 was found to be 0.62 ng/mL.
Regarding “IL-1ra: wild type IL-1 receptor antagonist, a mature protein of 152 amino acids, used as reference standard [reference compound]”, in the assay with murine thymocytes, the “Thymocyte proliferation to IL-1β 30 pg/ml, ID50” value turned out to be 0.813 ng/mL and the “Thymocyte proliferation to IL-1β 300 pg/ml, ID50” value was determined as 4.10 ng/mL. Moreover, the “Binding to IL-1RI, ID50” value with IL-1RI worked out at 0.34 nM. Besides, the “Neutrophilia, ID100” value in the assay with IL-1β [1] is 0.225 mg/kg. Also, in the assay on IL-1β [2], the “Hypoglycaemia, ID50” value came out at 0.968 mg/kg. Further, the “Binding to IL-1RII, ID50” value with IL-1RII (setting [3]) came out at 19.60 nM. The “IL-6 production, ID50” value in the assay on human osteosarcoma MG-63 was found to be 3.60 ng/mL.
For “MILRA-3: IL-1ra double mutant N91/T109→R/A”, the “Thymocyte proliferation to IL-1β 30 pg/ml, ID50” value in the assay on murine thymocytes stood at 0.285 ng/mL. In addition, in the assay with IL-1RI, the “Binding to IL-1RI, ID50” value is recorded as 0.22 nM. The “Hypoglycaemia, ID50” value with IL-1β [2] turned out to be 0.076 mg/kg. The “Binding to IL-1RII, ID50” value with IL-1RII (setting [3]) came out at 70.70 nM.
